Assays:
[1] = Stability of analytes in rat plasma (short-term, long-term, freeze/thaw); type: in vitro ADME; settings: n = 6; for Freeze/thaw (−20 °C to room temperature) RE: three cycles
Procedure: The stability of the samples (including QC and IS) in rat plasma was determined by placing samples (n = 6) in three settings. Of those settings, the short-term stability was determined via leaving the samples at room temperature for 24 h. For long-term stability evaluation, the samples went through 3 weeks of storage at − 20 °C before measurement. The stability of samples after freeze-thaw treatment was assessed by performing freeze/thaw cycles on each sample three times prior to analysis. The fresh samples were prepared as a negative control. The acceptable bias was considered great stability when it was within ±15%. […]

[2] = Pharmacokinetic study in rats after sublingual vein administration of parecoxib; type: in vivo; settings: male, Sprague Dawley, rat plasma, sublingual vein administration of 5 mg/kg PCX, n = 6; for MRT last: read-out: MRT(0-t); for MRT inf: read-out: MRT(0-∞)
Procedure: The average weight range of 200–220 g male Sprague Dawley (SD) was obtained from the laboratory animal center of the Wenzhou Medical University (Wenzhou, China, License No. SCXK [ZJ] 2005–0019). Rats stayed in cages and freely got food and water under a stable temperature range of 24–26 °C and a controllable 12 h light/dark cycle apparatus. Animal protocols were approved by the Institutional animal experimentation Committee of the Wenzhou Medical University. A total of 12 SD rats were separated into two isolated groups, including the experimental group (n = 6) and the control group (n = 6). Fasting was carried out for 12 h before assays, and only water was freely accessible. The rats were treated with […] PCX intravenously, which was equivalent to 56 mg for an individual of 70 kg human body weight (regular range in the clinic is from 40 to 80 mg). 0.3 ml of blood samples were collected and stabilized in heparinized tubes at each given time point (0, 0.083, 0.167, 0.25, 0.5, 0.75, 1, 2, 3, 4, 6, 8, 10, 12 and 24 h). The plasma samples were separated through centrifugation at 3000 r/min for 10 min and carefully collected the supernatant and stored at − 20 °C before analysis. All pharmacokinetic data were analyzed by the DAS (Drug and Statistics) software. All rats were sacrificed by CO2 inhalation.
In the clinic, the recommended dose of PCX was 40 mg per patient, i.m. or i.v., and the total daily dose was not more than 80 mg. In the present study, a dose of 5 mg/kg PCX was injected to rats by i.v., which was equivalent to 56 mg for an individual of 70 kg body weight (range of 40–80 mg). The UPLC-MS/MS has effectively monitored the pharmacokinetic changes after administration of […] PCX. Further, the pharmacokinetic parameters were figured out by using the DAS 3.0 software.

[3] = design: method as in PMID 11519767; settings: control of acute pain, specific dose of PCX; cited from earlier work
[4] = design: method as in PMID 29843006; settings: cited from earlier work
plasma proteins = settings: cited from earlier work

Cc1ccc(-c2cc(C(F)(F)F)nn2-c2ccc(S(N)(=O)=O)cc2)cc1 [Celecoxib]
Long-term (−20 °C, 3 weeks) RE ([1]; 200 ng/mL): −1.3%
Short-term (room temperature, 24 h) RE ([1]; 200 ng/mL): 7.5%
Freeze/thaw (−20 °C to room temperature) RE ([1]; 200 ng/mL): 5.8%

CCC(=O)NS(=O)(=O)c1ccc(-c2c(-c3ccccc3)noc2C)cc1 [Parecoxib]
AUC(0-inf) [2]: 2110 ± 283 ng·h/mL
AUC(0-t) [2]: 2110 ± 282 ng·h/mL
Cmax [2]: 5070 ± 1210 ng/mL
Tmax [2]: 0.1 h
clearance [2]: 40 mL/min/kg
half-life [2]: 1.4 ± 0.5 h
MRT last [2]: 0.4 ± 0.1 h
MRT inf [2]: 0.4 ± 0.1 h
Long-term (−20 °C, 3 weeks) RE ([1]; 100 ng/mL): 14.2%
Short-term (room temperature, 24 h) RE ([1]; 100 ng/mL): 13.0%
Freeze/thaw (−20 °C to room temperature) RE ([1]; 100 ng/mL): 14.9%
Long-term (−20 °C, 3 weeks) RE ([1]; 800 ng/mL): 12.7%
Short-term (room temperature, 24 h) RE ([1]; 800 ng/mL): 10.2%
Freeze/thaw (−20 °C to room temperature) RE ([1]; 800 ng/mL): 14.2%
Long-term (−20 °C, 3 weeks) RE ([1]; 8000 ng/mL): 14.3%
Short-term (room temperature, 24 h) RE ([1]; 8000 ng/mL): −10.5%
Freeze/thaw (−20 °C to room temperature) RE ([1]; 8000 ng/mL): −7.9%
onset of analgesia [3]: 7 to 14 min
time to peak analgesic effect [3]: ≤ 2 h

Cc1onc(-c2ccccc2)c1-c1ccc(S(N)(=O)=O)cc1 [Valdecoxib]
AUC(0-inf) [2]: 4370 ± 1530 ng·h/mL
AUC(0-t) [2]: 4190 ± 1590 ng·h/mL
Cmax [2]: 701 ± 92.6 ng/mL
Tmax [2]: 0.8 ± 0.2 h
clearance [2]: 20 mL/min/kg
half-life [2]: 3.1 ± 1.1 h
MRT last [2]: 4.1 ± 1 h
MRT inf [2]: 4.8 ± 1.1 h
Long-term (−20 °C, 3 weeks) RE ([1]; 5 ng/mL): −1.4%
Short-term (room temperature, 24 h) RE ([1]; 5 ng/mL): −6.7%
Freeze/thaw (−20 °C to room temperature) RE ([1]; 5 ng/mL): 5.2%
Long-term (−20 °C, 3 weeks) RE ([1]; 40 ng/mL): 13.2%
Short-term (room temperature, 24 h) RE ([1]; 40 ng/mL): 12%
Freeze/thaw (−20 °C to room temperature) RE ([1]; 40 ng/mL): 14.2%
Long-term (−20 °C, 3 weeks) RE ([1]; 400 ng/mL): 3.2%
Short-term (room temperature, 24 h) RE ([1]; 400 ng/mL): 3.2%
Freeze/thaw (−20 °C to room temperature) RE ([1]; 400 ng/mL): 9.5%
fraction of VCX in the circulation metabolized to hydroxylated VCX [4]: approximately 10%
bound to plasma proteins (plasma proteins): 98%

— paper PMC7137270, “Determination of parecoxib and valdecoxib in rat plasma by UPLC-MS/MS and its application to pharmacokinetics studies” (BMC Pharmacology & Toxicology, 2020)
